Results as given in patent US20060160721A1, “Method of plasma lipidation to prevent, inhibit and/or reverse atherosclerosis” (BAYLOR COLLEGE OF MEDICINE, priority 2004, published 2006).

Experiment: Lipoprotein cholesterophilicity: cholesterol partitioning between lipoproteins and 2-hydroxypropyl-cyclodextrin (CDX)
Format: binding
Settings: isolated LDL and HDL enriched with POPC by DP
Procedure: Control samples were prepared without detergent or POPC. The samples were dialyzed as described above. […] The samples were incubated for three hours and transferred to Microcon ultracentrifugal filters with an exclusion limit of 30 kDa and centrifuged for 10 min at 12,000 rpm in an Eppendorf microfuge. Aliquots of the retentate and filtrate were analyzed for cholesterol, protein, and phospholipid. The partition coefficient Kp for the distribution of cholesterol between TLP and CDX was calculated from Kp={FCBound×[[…]} Equation 1 where TLPPro is the initial TLP-protein concentration (mg/mL), […], and FCBound, respectively are the free cholesterol concentrations in the retentate, filtrate, and bound to TLP with FCBound calculated as […].

## CCCCCCCC/C=C\CCCCCCCC(=O)O[C@H](COC(=O)CCCCCCCCCCCCCCC)COP(=O)([O-])OCC[N+](C)(C)C [POPC, 1-palmitoyl-2-oleoyl (PO) PC]
  effect of added POPC on the cholesterophilicities of LDL and HDL: dose-dependent increase
